Data reported in ChEMBL document CHEMBL3286231, “Synthesis and biological effects of new hybrid compounds composed of benzylguanidines and the alkylating group of busulfan on neuroblastoma cells” (Bioorg Med Chem Lett, 2014).
Active and inactive are the calls of the source. The calls are words filed in the database; no cut-off is given here.

Assays:
Kelly [1] = assay: Antiproliferative activity against human Kelly cells after 72 hrs by MTT assay; format: functional, cell-based
SIMA [2] = assay: Antiproliferative activity against human SiMa cells after 72 hrs by MTT assay; format: functional, cell-based
SK-N-SH [3] = assay: Antiproliferative activity against human SK-N-SH cells after 72 hrs by MTT assay; format: functional, cell-based
LS [4] = assay: Antiproliferative activity against human LS cells after 72 hrs by MTT assay; format: functional, cell-based
SIMA [5] = assay: Increase in glycolysis in human SiMa cells assessed as conversion of glucose to lactate at 100 uM after 12 hrs relative to untreated control; format: functional
LS [6] = assay: (§1) Increase in glycolysis in human LS cells assessed as conversion of glucose to lactate at 100 uM after 12 hrs relative to untreated control; format: functional
Kelly [7] = assay: (§2) Increase in glycolysis in human Kelly cells assessed as conversion of glucose to lactate at 100 uM after 12 hrs relative to untreated control; format: functional
LS [8] = assay: Antiproliferative activity against human LS cells at 10 to 100 uM after 72 hrs by MTT assay; format: functional, cell-based
Kelly [9] = assay: Antiproliferative activity against human Kelly cells at 10 to 100 uM after 72 hrs by MTT assay; format: functional, cell-based
SK-N-SH [10] = assay: Antiproliferative activity against human SK-N-SH cells at 10 to 100 uM after 72 hrs by MTT assay; format: functional, cell-based
SIMA [11] = assay: Antiproliferative activity against human SiMa cells at 10 to 100 uM after 72 hrs by MTT assay; format: functional, cell-based
[12] = as §1; format: functional
[13] = as §2; format: functional

## CS(=O)(=O)OCCCCOc1ccc(CNC(=N)N)cc1
Kelly [1]
  Activity: Dose-dependent effect
SIMA [2]
  Activity: Dose-dependent effect
SK-N-SH [3]
  Activity: Dose-dependent effect
LS [4]
  Activity: Dose-dependent effect
SIMA [5]
  Activity: Active
LS [6]
  Activity: Active
Kelly [7]
  Activity: Active

## CS(=O)(=O)OCCCCOc1cccc(CNC(=N)N)c1
Kelly [1]
  Activity: Dose-dependent effect
SIMA [2]
  Activity: Dose-dependent effect
SK-N-SH [3]
  Activity: Dose-dependent effect
LS [4]
  Activity: Dose-dependent effect
SIMA [5]
  Activity: Active
LS [6]
  Activity: Active
Kelly [7]
  Activity: Active

## CS(=O)(=O)OCCCCOS(C)(=O)=O
LS [8]
  Activity: Active
Kelly [9]
  Activity: Active
SK-N-SH [10]
  Activity: Active
SIMA [5]
  Activity: inactive
LS [6]
  Activity: inactive
Kelly [7]
  Activity: inactive
SIMA [11]
  Activity: Active

## N=C(N)NCc1cccc(I)c1 [IOBENGUANE]
LS [8]
  Activity: Active
Kelly [9]
  Activity: Active
SK-N-SH [10]
  Activity: Active
SIMA [5]
  Activity: 98%
[12]
  Activity: 81%
[13]
  Activity: 74%
SIMA [11]
  Activity: Active
